Data taken from US9205102B2, “Method for treatment of castration-resistant prostate cancer” (The University of British Columbia, priority 2013, dated 2015).
e = 2'-O-(2-methoxyethyl) (MOE); d = 2'-deoxy (DNA)

How the values were obtained:
Assay type in all cases: cell-based
[1] = system: CRPC cell lines exhibiting resistance to enzaluatamide; assay: Killing of enzalutamide-resistant CRPC cell lines (summary statement); details: enzalutamide-resistant CRPC cell lines overexpressing IGFBP-2 or IGFBP-5
Description: In a further aspect of the invention, a method for treatment of prostate cancer is provided in which an agent effective to reduce expression of IGFBP-2 and IGFBP-5 is administered to a patient suffering from prostate cancer, and particularly CRPC, concurrently with the administration of androgen-receptor antagonist treatments. Administration of the antisense concurrently with the androgen-receptor antagonist treatment reduces selective pressure towards resistance within the cancer cell population and therefore can delay onset of androgen-receptor antagonist resistance as well as directly providing a therapeutic benefit by killing resistant cells.

[2] = system: IGFBP-2 or IGFBP-5 (predominant IGFBP); assay: Reduction of IGFBP-2 or IGFBP-5 in prostate cancer cell lines in vitro (FIG. 2); details: concentrations of 10 nM to 100 nM
MR42F = assay: Cell viability in enzalutamide resistant cell line MR42F (FIG. 5B); details: compared to a scrambled control
Description: (§1) FIGS. 5A and B show cell viability in enzalutamide resistant cell lines MR42D and MR42F, respectively.
(§2) Tests were performed on androgen sensitive cells line (LNCaP), castrate resistant, enzalutamide-sensitive prostate cancer cell lines V16A and V16D, which were derived from LNCaP cells grown in castrated nude, Matsumoto, H.; Yamamoto, Y.; Shiota, M.; et al. Cancer Res. (2013) 73(16): 5206-17 and Kuruma, H; Matsumoto, H.; Shiota, M. et al. Mol Cancer Ther (2013) 12(5): 567-76; and castrate resistant, enzalutamide-resistant prostate cancer cell lines MR42D, MR49C, and MR49F which were derived from LNCaP cells grown in castrated nude mice treated with enzalutamide at 10 mg/kg PO daily. BPH-1 is an immortal, benign prostatic hyperplasia cell line (Hayward S W, Dahiya R, Cunha G R, et al. (1995). In Vitro Cell Dev Biol Anim 31: 14-24).

MR42D = assay: Cell viability in enzalutamide resistant cell line MR42D (FIG. 5A); details: compared to a scrambled control
Description: as §1, §2

IGFBP-2 = IGFBP-2 level in V16 samples treated with OGX-225; details: V16 samples treated with OGX-225 (10 nM)

“OGX-225: bispecific second generation antisense oligonucleotide to IGFBP-2 and IGFBP-5; 20 base phosphorothioate 5-10-5 MOE gapmer, 5′-CAGCAGCCGCAGCCCGGCTC-3′ (sugars from the 5' end e5 d10 e5, all C 5-methyl, all phosphorothioate, T or U not given here)” was tested, and the “killing of resistant cells” value [1] was “capable of killing these resistant cells”, the “amount of the predominant IGFBP” value [2] was “reduce the amount of the predominant IGFBP in a dose dependent manner” and the cell viability (MR42F) was “substantially reduce the viability”. The cell viability (MR42D) was “substantially reduce the viability” and the IGFBP-2 level (IGFBP-2) was “Reduction in the IGFBP-2 level”.
